According to PubChem BioAssay (NCI):
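All cell lines were grown in 96-well plates and treated with compound for 48 hours. At the TGI there is no net growth.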

Tests used:
Experiment in all cases: NCI anticancer screen, dose series, 48 h
[1] = system: NCI-H522 lung
[2] = system: HL-60(TB) leukemia
[3] = system: HCT-116 colon
[4] = system: PC-3 prostate
[5] = system: KM12 colon
[6] = system: A498 renal
[7] = system: SF-295 CNS
[8] = system: HS 578T breast
[9] = system: OVCAR-4 ovarian
[10] = system: BT-549 breast
[11] = system: 786-0 renal
[12] = system: LOX IMVI melanoma
[13] = system: SF-268 CNS
[14] = system: RPMI-8226 leukemia
[15] = system: MCF7 breast
[16] = system: OVCAR-3 ovarian
[17] = system: T-47D breast
[18] = system: TK-10 renal
[19] = system: MDA-MB-435
[20] = system: NCI-H23 lung
[21] = system: CAKI-1 renal
[22] = system: COLO 205 colon
[23] = system: NCI-H460 lung
[24] = system: U251 CNS
[25] = system: SK-MEL-28 melanoma
[26] = system: EKVX NSCLC
[27] = system: HOP-62 NSCLC
[28] = system: SK-MEL-5 melanoma
[29] = system: DU-145 prostate
[30] = system: A549 NSCLC
[31] = system: UACC-62 melanoma
[32] = system: UACC-257 melanoma
[33] = system: CCRF-CEM leukemia
[34] = system: SN12C renal
[35] = system: HCT-15 colon
[36] = system: OVCAR-8 ovarian
[37] = system: MDA-N
[38] = system: NCI/ADR-RES ovarian
[39] = system: ACHN renal
[40] = system: SK-MEL-2 melanoma
[41] = system: MDA-MB-231 breast
[42] = system: MOLT-4 leukemia
[43] = system: NCI-H226 lung
[44] = system: HT29 colon
[45] = system: K-562 leukemia
[46] = system: OVCAR-5 ovarian
[47] = system: SR leukemia
[48] = system: UO-31 renal
[49] = system: SW-620 colon
[50] = system: SF-539 CNS
[51] = system: HOP-92 NSCLC
[52] = system: SNB-75 CNS
[53] = system: RXF 393 renal
[54] = system: HCC-2998 colon
[55] = system: MALME-3M melanoma
[56] = system: SK-OV-3 ovarian
[57] = system: M14 melanoma
[58] = system: SNB-19 CNS
[59] = system: IGROV1 ovarian

SMILES: Cc1n[nH]c(=O)n1/N=C/c1ccc([N+](=O)[O-])cc1
- TGI [1]: > 100 µM
- TGI [2]: > 100 µM
- TGI [3]: > 100 µM
- TGI [4]: > 100 µM
- TGI [5]: > 100 µM
- TGI [6]: > 100 µM
- TGI [7]: > 100 µM
- TGI [8]: > 100 µM
- TGI [9]: > 100 µM
- TGI [10]: > 100 µM
- TGI [11]: > 100 µM
- TGI [12]: > 100 µM
- TGI [13]: > 100 µM
- TGI [14]: > 100 µM
- TGI [15]: > 100 µM
- TGI [16]: > 100 µM
- TGI [17]: > 100 µM
- TGI [18]: > 100 µM
- TGI [19]: > 100 µM
- TGI [20]: > 100 µM
- TGI [21]: > 100 µM
- TGI [22]: > 100 µM
- TGI [23]: > 100 µM
- TGI [24]: > 100 µM
- TGI [25]: > 100 µM
- TGI [26]: > 100 µM
- TGI [27]: > 100 µM
- TGI [28]: > 100 µM
- TGI [29]: > 100 µM
- TGI [30]: > 100 µM
- TGI [31]: > 100 µM
- TGI [32]: > 100 µM
- TGI [33]: > 100000 nM
- TGI [34]: > 100 µM
- TGI [35]: > 100 µM
- TGI [36]: > 100 µM
- TGI [37]: > 100 µM
- TGI [38]: > 100 µM
- TGI [39]: > 100 µM
- TGI [40]: > 100 µM
- TGI [41]: > 100 µM
- TGI [42]: > 100 µM
- TGI [43]: > 100 µM
- TGI [44]: > 100 µM
- TGI [45]: > 100 µM
- TGI [46]: > 100 µM
- TGI [47]: > 100 µM
- TGI [48]: > 100 µM
- TGI [49]: > 100 µM
- TGI [50]: > 100 µM
- TGI [51]: > 100 µM
- TGI [52]: > 100 µM
- TGI [53]: > 100 µM
- TGI [54]: > 100 µM
- TGI [55]: > 100 µM

SMILES: Cc1ccc(NC(=O)c2cc(S(=O)(=O)Nc3n[nH]c(=O)n3-c3ccccc3)c(S)cc2Cl)cc1
- TGI [1]: > 100 µM
- TGI [2]: > 100 µM
- TGI [3]: > 100 µM
- TGI [56]: > 100 µM
- TGI [4]: > 100 µM
- TGI [5]: > 100 µM
- TGI [6]: > 100 µM
- TGI [8]: > 100 µM
- TGI [9]: > 100 µM
- TGI [10]: > 100 µM
- TGI [11]: > 100 µM
- TGI [12]: > 100 µM
- TGI [13]: > 100 µM
- TGI [14]: > 100 µM
- TGI [15]: > 100 µM
- TGI [16]: > 100 µM
- TGI [17]: > 100 µM
- TGI [18]: > 100 µM
- TGI [19]: > 100 µM
- TGI [20]: > 100 µM
- TGI [21]: > 100 µM
- TGI [22]: > 100 µM
- TGI [23]: > 100 µM
- TGI [24]: > 100 µM
- TGI [25]: > 100 µM
- TGI [26]: > 100 µM
- TGI [28]: > 100 µM
- TGI [29]: > 100 µM
- TGI [30]: > 100 µM
- TGI [31]: > 100 µM
- TGI [32]: > 100 µM
- TGI [34]: > 100 µM
- TGI [35]: > 100 µM
- TGI [57]: > 100 µM
- TGI [36]: > 100 µM
- TGI [37]: > 100 µM
- TGI [38]: > 100 µM
- TGI [58]: > 100 µM
- TGI [40]: > 100 µM
- TGI [41]: > 100 µM
- TGI [42]: > 100 µM
- TGI [43]: > 100 µM
- TGI [44]: > 100 µM
- TGI [45]: > 100 µM
- TGI [46]: > 100 µM
- TGI [47]: > 100 µM
- TGI [48]: > 100 µM
- TGI [49]: > 100 µM
- TGI [59]: > 100000 nM
- TGI [50]: > 100 µM
- TGI [51]: > 100 µM
- TGI [52]: > 100 µM
- TGI [53]: > 100 µM
- TGI [54]: > 100 µM
- TGI [55]: > 100 µM

SMILES: CC(C)c1cc2c(c(O)c1O)[C@@]1(C)CCCC(C)(C)C1=C(O)C2
- TGI [1]: 3.06 µM
- TGI [2]: 3.27 µM
- TGI [3]: > 50 µM
- TGI [4]: 3.51 µM
- TGI [5]: 5.78 µM
- TGI [6]: 3.19 µM
- TGI [7]: 4.38 µM
- TGI [8]: 13.4 µM
- TGI [9]: 4.55 µM
- TGI [10]: 4.22 µM
- TGI [11]: 11.8 µM
- TGI [12]: 3.14 µM
- TGI [13]: 5.84 µM
- TGI [14]: 2.15 µM
- TGI [15]: 2.85 µM
- TGI [16]: 5.26 µM
- TGI [17]: 20 µM
- TGI [18]: 24.2 µM
- TGI [19]: 2.77 µM
- TGI [20]: 6.8 µM
- TGI [21]: 2.84 µM
- TGI [22]: 8.06 µM
- TGI [23]: 5.89 µM
- TGI [24]: 4.54 µM
- TGI [25]: 8.69 µM
- TGI [26]: 3.56 µM
- TGI [27]: 13.4 µM
- TGI [28]: 2.32 µM
- TGI [29]: > 50 µM
- TGI [30]: 5.73 µM
- TGI [31]: > 50 µM
- TGI [32]: 3.37 µM
- TGI [33]: 2120 nM
- TGI [34]: > 50 µM
- TGI [35]: 6.77 µM
- TGI [57]: 13.4 µM
- TGI [36]: 6.99 µM
- TGI [37]: 6.77 µM
- TGI [38]: 2 µM
- TGI [39]: 5.39 µM
- TGI [58]: 9.32 µM
- TGI [40]: 2.65 µM
- TGI [41]: > 50 µM
- TGI [42]: 2.99 µM
- TGI [43]: > 50 µM
- TGI [44]: 16.1 µM
- TGI [45]: 4.13 µM
- TGI [46]: 9.03 µM
- TGI [47]: 3.21 µM
- TGI [48]: 3.95 µM
- TGI [49]: 5.4 µM
- TGI [59]: 2790 nM
- TGI [50]: 1.89 µM
- TGI [51]: 2.32 µM
- TGI [52]: 2.56 µM
- TGI [53]: 2.96 µM
- TGI [54]: 2.76 µM
- TGI [55]: 3.36 µM
